Measured values: PubChem BioAssay AID1963847 (Molecular Pharmacology Branch, DTP, NCI, 2024)
pIC50: −log10 of the molar value.

System: 415267-285-R-J2-PDC complex spheroid viability
Assay: Anticancer human tumor 415267-285-R-J2-PDC patient-derived breast carcinoma cell line growth inhibition [POLQ]
Details: for pIC50: curve of first compound; for viability, T/C: stronger effect = lower value
Method in brief: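 PDC + HUVEC + MSC complex spheroids; POLQ inhibitors ± partner drugs; top conc. at/near clinical Cmax, else 10 microM (SN-38 1 microM), half-log dilutions; 37 degrees C, 5% CO2.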

[1] = second compound 0.0316 µM, first compound 0.0316 µM
[2] = second compound 0.0316 µM, first compound 0.1 µM
[3] = second compound 0.0316 µM, first compound 0.316 µM
[4] = second compound 0.0316 µM, first compound 1 µM
[5] = second compound 0.0316 µM, first compound 3.16 µM
[6] = second compound 0.0316 µM, first compound 10 µM
[7] = second compound 0.1 µM, first compound 0.0316 µM
[8] = second compound 0.1 µM, first compound 0.1 µM
[9] = second compound 0.1 µM, first compound 0.316 µM
[10] = second compound 0.1 µM, first compound 1 µM
[11] = second compound 0.1 µM, first compound 3.16 µM
[12] = second compound 0.1 µM, first compound 10 µM
[13] = second compound 0.316 µM, first compound 0.0316 µM
[14] = second compound 0.316 µM, first compound 0.1 µM
[15] = second compound 0.316 µM, first compound 0.316 µM
[16] = second compound 0.316 µM, first compound 1 µM
[17] = second compound 0.316 µM, first compound 3.16 µM
[18] = second compound 0.316 µM, first compound 10 µM
[19] = second compound 1 µM, first compound 0.0316 µM
[20] = second compound 1 µM, first compound 0.1 µM
[21] = second compound 1 µM, first compound 0.316 µM
[22] = second compound 1 µM, first compound 1 µM
[23] = second compound 1 µM, first compound 3.16 µM
[24] = second compound 1 µM, first compound 10 µM
[25] = second compound 3.16 µM, first compound 0.0316 µM
[26] = second compound 3.16 µM, first compound 0.1 µM
[27] = second compound 3.16 µM, first compound 0.316 µM
[28] = second compound 3.16 µM, first compound 1 µM
[29] = second compound 3.16 µM, first compound 3.16 µM
[30] = second compound 3.16 µM, first compound 10 µM
[31] = second compound 10 µM, first compound 0.0316 µM
[32] = second compound 10 µM, first compound 0.1 µM
[33] = second compound 10 µM, first compound 0.316 µM
[34] = second compound 10 µM, first compound 1 µM
[35] = second compound 10 µM, first compound 3.16 µM
[36] = second compound 10 µM, first compound 10 µM
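Also: spheroids exposed to compounds for one week before readout.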
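For viability, T/C in this document: luminescence used as stand-in measure of viable cells; 100% = DMSO vehicle control viability.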

## CC1COCCN1c1cc(C2(S(C)(=N)=O)CC2)nc(-c2ccnc3[nH]ccc23)n1 (stereo not drawn) + Nc1ccc(C#CCN(C(=O)Cc2ncc(C(F)(F)F)cc2C(F)(F)F)c2ccc(F)cc2)nn1
Second compound 0.0316 µM
  pIC50: 6.27
Second compound 0.1 µM
  pIC50: 6.29
Second compound 0.316 µM
  pIC50: 6.23
Second compound 1 µM
  pIC50: 6.27
Second compound 3.16 µM
  pIC50: 6.25
Second compound 10 µM
  pIC50: 6.28
[1]
  viability, T/C: 106%
[2]
  viability, T/C: 113%
[3]
  viability, T/C: 81.3%
[4]
  viability, T/C: 14.2%
[5]
  viability, T/C: 5.34%
[6]
  viability, T/C: 3.83%
[7]
  viability, T/C: 94.3%
[8]
  viability, T/C: 108%
[9]
  viability, T/C: 75%
[10]
  viability, T/C: 15.4%
[11]
  viability, T/C: 5.4%
[12]
  viability, T/C: 3.91%
[13]
  viability, T/C: 104%
[14]
  viability, T/C: 101%
[15]
  viability, T/C: 92.6%
[16]
  viability, T/C: 14.3%
[17]
  viability, T/C: 5.2%
[18]
  viability, T/C: 3.58%
[19]
  viability, T/C: 104%
[20]
  viability, T/C: 95%
[21]
  viability, T/C: 81.9%
[22]
  viability, T/C: 12.5%
[23]
  viability, T/C: 6.5%
[24]
  viability, T/C: 2.93%
[25]
  viability, T/C: 102%
[26]
  viability, T/C: 104%
[27]
  viability, T/C: 87.3%
[28]
  viability, T/C: 12%
[29]
  viability, T/C: 5.15%
[30]
  viability, T/C: 4.26%
[31]
  viability, T/C: 111%
[32]
  viability, T/C: 91.2%
[33]
  viability, T/C: 80.8%
[34]
  viability, T/C: 11.4%
[35]
  viability, T/C: 5.02%
[36]
  viability, T/C: 4.34%

## CC[C@@]1(O)C(=O)OCc2c1cc1n(c2=O)Cc2cc3c(CN(C)C)c(O)ccc3nc2-1 + Nc1ccc(C#CCN(C(=O)Cc2ncc(C(F)(F)F)cc2C(F)(F)F)c2ccc(F)cc2)nn1
Second compound 0.0316 µM
  pIC50: 7.62
Second compound 0.1 µM
  pIC50: 7.63
Second compound 0.316 µM
  pIC50: 7.59
Second compound 1 µM
  pIC50: 7.61
Second compound 3.16 µM
  pIC50: 7.65
Second compound 10 µM
  pIC50: 7.62
Second compound 0.0316 µM, first compound 0.000316 µM
  viability, T/C: 102%
Second compound 0.0316 µM, first compound 0.001 µM
  viability, T/C: 101%
Second compound 0.0316 µM, first compound 0.00316 µM
  viability, T/C: 98.6%
Second compound 0.0316 µM, first compound 0.01 µM
  viability, T/C: 93.3%
[1]
  viability, T/C: 37%
[2]
  viability, T/C: 8.63%
Second compound 0.1 µM, first compound 0.000316 µM
  viability, T/C: 116%
Second compound 0.1 µM, first compound 0.001 µM
  viability, T/C: 102%
Second compound 0.1 µM, first compound 0.00316 µM
  viability, T/C: 96.8%
Second compound 0.1 µM, first compound 0.01 µM
  viability, T/C: 98.2%
[7]
  viability, T/C: 32.5%
[8]
  viability, T/C: 8.01%
Second compound 0.316 µM, first compound 0.000316 µM
  viability, T/C: 115%
Second compound 0.316 µM, first compound 0.001 µM
  viability, T/C: 98.2%
Second compound 0.316 µM, first compound 0.00316 µM
  viability, T/C: 94.2%
Second compound 0.316 µM, first compound 0.01 µM
  viability, T/C: 105%
[13]
  viability, T/C: 38.5%
[14]
  viability, T/C: 5.29%
Second compound 1 µM, first compound 0.000316 µM
  viability, T/C: 120%
Second compound 1 µM, first compound 0.001 µM
  viability, T/C: 96.2%
Second compound 1 µM, first compound 0.00316 µM
  viability, T/C: 98.8%
Second compound 1 µM, first compound 0.01 µM
  viability, T/C: 101%
[19]
  viability, T/C: 33.4%
[20]
  viability, T/C: 7.54%
Second compound 3.16 µM, first compound 0.000316 µM
  viability, T/C: 107%
Second compound 3.16 µM, first compound 0.001 µM
  viability, T/C: 103%
Second compound 3.16 µM, first compound 0.00316 µM
  viability, T/C: 97.6%
Second compound 3.16 µM, first compound 0.01 µM
  viability, T/C: 115%
[25]
  viability, T/C: 26.7%
[26]
  viability, T/C: 9.06%
Second compound 10 µM, first compound 0.000316 µM
  viability, T/C: 113%
Second compound 10 µM, first compound 0.001 µM
  viability, T/C: 106%
Second compound 10 µM, first compound 0.00316 µM
  viability, T/C: 98.9%
Second compound 10 µM, first compound 0.01 µM
  viability, T/C: 104%
[31]
  viability, T/C: 32.2%
[32]
  viability, T/C: 8.26%

## O=C(c1cc(Cc2n[nH]c(=O)c3ccccc23)ccc1F)N1CCN(C(=O)C2CC2)CC1 + Nc1ccc(C#CCN(C(=O)Cc2ncc(C(F)(F)F)cc2C(F)(F)F)c2ccc(F)cc2)nn1
Second compound 0.0316 µM
  pIC50: < 5.00
Second compound 0.1 µM
  pIC50: < 5.00
Second compound 0.316 µM
  pIC50: < 5.00
Second compound 1 µM
  pIC50: < 5.00
Second compound 3.16 µM
  pIC50: < 5.00
Second compound 10 µM
  pIC50: < 5.00
[1]
  viability, T/C: 100%
[2]
  viability, T/C: 106%
[3]
  viability, T/C: 106%
[4]
  viability, T/C: 97.5%
[5]
  viability, T/C: 96%
[6]
  viability, T/C: 99%
[7]
  viability, T/C: 98.4%
[8]
  viability, T/C: 103%
[9]
  viability, T/C: 109%
[10]
  viability, T/C: 97.2%
[11]
  viability, T/C: 108%
[12]
  viability, T/C: 90.8%
[13]
  viability, T/C: 106%
[14]
  viability, T/C: 115%
[15]
  viability, T/C: 101%
[16]
  viability, T/C: 114%
[17]
  viability, T/C: 101%
[18]
  viability, T/C: 105%
[19]
  viability, T/C: 108%
[20]
  viability, T/C: 109%
[21]
  viability, T/C: 108%
[22]
  viability, T/C: 98.5%
[23]
  viability, T/C: 110%
[24]
  viability, T/C: 108%
[25]
  viability, T/C: 101%
[26]
  viability, T/C: 101%
[27]
  viability, T/C: 100%
[28]
  viability, T/C: 101%
[29]
  viability, T/C: 105%
[30]
  viability, T/C: 115%
[31]
  viability, T/C: 98.9%
[32]
  viability, T/C: 96.9%
[33]
  viability, T/C: 113%
[34]
  viability, T/C: 107%
[35]
  viability, T/C: 97.8%
[36]
  viability, T/C: 102%

## O=c1[nH]cc(F)c(=O)[nH]1 + Nc1ccc(C#CCN(C(=O)Cc2ncc(C(F)(F)F)cc2C(F)(F)F)c2ccc(F)cc2)nn1
Second compound 0.0316 µM
  pIC50: 6.36
Second compound 0.1 µM
  pIC50: 6.58
Second compound 0.316 µM
  pIC50: 6.55
Second compound 1 µM
  pIC50: 6.51
Second compound 3.16 µM
  pIC50: 6.57
Second compound 10 µM
  pIC50: 6.51
[1]
  viability, T/C: 101%
[2]
  viability, T/C: 93%
[3]
  viability, T/C: 57.5%
[4]
  viability, T/C: 21.4%
[5]
  viability, T/C: 29.9%
[6]
  viability, T/C: 40.1%
[7]
  viability, T/C: 86.4%
[8]
  viability, T/C: 85.5%
[9]
  viability, T/C: 43%
[10]
  viability, T/C: 20.9%
[11]
  viability, T/C: 30%
[12]
  viability, T/C: 38.5%
[13]
  viability, T/C: 93.6%
[14]
  viability, T/C: 97%
[15]
  viability, T/C: 45.1%
[16]
  viability, T/C: 24.4%
[17]
  viability, T/C: 24.6%
[18]
  viability, T/C: 46.4%
[19]
  viability, T/C: 97%
[20]
  viability, T/C: 92.7%
[21]
  viability, T/C: 49.1%
[22]
  viability, T/C: 27.1%
[23]
  viability, T/C: 30.4%
[24]
  viability, T/C: 35.4%
[25]
  viability, T/C: 106%
[26]
  viability, T/C: 90.7%
[27]
  viability, T/C: 44.5%
[28]
  viability, T/C: 22.4%
[29]
  viability, T/C: 24.1%
[30]
  viability, T/C: 42.3%
[31]
  viability, T/C: 113%
[32]
  viability, T/C: 87%
[33]
  viability, T/C: 52.5%
[34]
  viability, T/C: 26.5%
[35]
  viability, T/C: 26.6%
[36]
  viability, T/C: 39%
